Experiments:
[1] = test system: RSV (RSV A2 ECACC, 0709161v); experiment: RSV plaque reduction assay; format: cell-based, respiratory syncytial virus; conditions: human respiratory syncytial virus, HepG2, read-out: RSV A2 Plaque EC50, RSV A2 in Hep-G2 cells; mean of at least two experiments unless noted (n = 1)
How it was run: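 Hep-G2 monolayers infected with 100 PFU/well RSV A2 premixed with eight serial compound dilutions (2 h, 37° C.), then kept 2 days under CMC overlay with compound in DMEM/2% FBS. Plaques immunostained (HRP/TrueBlue) and counted; % infection versus virus control gives EC50, mean of at least two experiments, rounded.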

cell toxicity CC50 = format: cell-based; conditions: human; Hep-G2 cells; mean of at least two experiments; read-out: Cell Cytotoxicity CC50

| Compound | EC50 [1] | CC50 (cell toxicity CC50) |
| --- | --- | --- |
| CCNc1ccc(-c2nn3c(c2C(=O)N[C@H]2N=C(c4ccccc4)c4cccc(F)c4NC2=O)O[C@H](C)CC3)cn1 [Example 52, (5R)-2-[6-(Ethylamino)-3-pyridyl]-N-[(3S)-9-fluoro-2-oxo-5-phenyl-1,3-dihydro-1,4-benzodiazepin-3-yl]-5-methyl-6,7-dihydro-5H-pyrazolo[5,1-b][1,3]oxazine-3-carboxamide] | 0.028 µM | > 25 µM |
| C[C@@H]1CCn2nc(-c3cc(C4CC4)cnc3F)c(C(=O)N[C@H]3N=C(c4ccccc4)c4cccc(F)c4NC3=O)c2O1 [Example 53, (5R)-2-(5-Cyclopropyl-2-fluoro-3-pyridyl)-N-[(3S)-9-fluoro-2-oxo-5-phenyl-1,3-dihydro-1,4-benzodiazepin-3-yl]-5-methyl-6,7-dihydro-5H-pyrazolo[5,1-b][1,3]oxazine-3-carboxamide] | 0.092 µM | > 25 µM |
| CCc1ccc(-c2nn3c(c2C(=O)N[C@H]2N=C(c4ccccc4)c4ccccc4NC2=O)O[C@H](C)CC3)c(F)c1 [Example 54] | 0.015 µM | > 25 µM |
| C[C@@H]1CCn2nc(-c3ccc(N4CCOCC4)nc3)c(C(=O)N[C@H]3N=C(c4ccccc4)c4ccccc4NC3=O)c2O1 [Example 55, (5R)-5-Methyl-2-(6-morpholino-3-pyridyl)-N-[(3S)-2-oxo-5-phenyl-1,3-dihydro-1,4-benzodiazepin-3-yl]-6,7-dihydro-5H-pyrazolo[5,1-b][1,3]oxazine-3-carboxamide] | 0.246 µM | > 25 µM |
| C[C@@H]1CCn2nc(-c3ccc(N4CCOCC4)nc3)c(C(=O)N[C@H]3N=C(c4ccccc4)c4cccc(F)c4NC3=O)c2O1 [Example 56, (5R)-N-[(3S)-9-fluoro-2-oxo-5-phenyl-1,3-dihydro-1,4-benzodiazepin-3-yl]-5-methyl-2-(6-morpholino-3-pyridyl)-6,7-dihydro-5H-pyrazolo[5,1-b][1,3]oxazine-3-carboxamide] | 0.123 µM | > 25 µM |
| Cc1ccc(-c2nn3c(c2C(=O)N[C@H]2N=C(c4ccccc4)c4ccccc4NC2=O)O[C@H](C)CC3)c(C)n1 [Example 57, (5R)-2-(2,6-Dimethyl-3-pyridyl)-5-methyl-N-[(3S)-2-oxo-5-phenyl-1,3-dihydro-1,4-benzodiazepin-3-yl]-6,7-dihydro-5H-pyrazolo[5,1-b][1,3]oxazine-3-carboxamide] | 0.353 µM | > 25 µM |
| Cc1ccc(-c2nn3c(c2C(=O)N[C@H]2N=C(c4ccccc4)c4cccc(F)c4NC2=O)O[C@H](C)CC3)c(C)n1 [Example 58, (5R)-2-(2,6-Dimethyl-3-pyridyl)-N-[(3S)-9-fluoro-2-oxo-5-phenyl-1,3-dihydro-1,4-benzodiazepin-3-yl]-5-methyl-6,7-dihydro-5H-pyrazolo[5,1-b][1,3]oxazine-3-carboxamide] | 0.188 µM | > 25 µM |
| CCc1ncc(-c2nn3c(c2C(=O)N[C@H]2N=C(c4ccccc4)c4ccccc4NC2=O)O[C@H](C)CC3)cn1 [Example 59, (5R)-2-(2-Ethylpyrimidin-5-yl)-5-methyl-N-[(3S)-2-oxo-5-phenyl-1,3-dihydro-1,4-benzodiazepin-3-yl]-6,7-dihydro-5H-pyrazolo[5,1-b][1,3]oxazine-3-carboxamide] | 0.309 µM | > 25 µM |
| CCc1ncc(-c2nn3c(c2C(=O)N[C@H]2N=C(c4ccccc4)c4cccc(F)c4NC2=O)O[C@H](C)CC3)cn1 [Example 60, (5R)-2-(2-Ethylpyrimidin-5-yl)-N-[(3S)-9-fluoro-2-oxo-5-phenyl-1,3-dihydro-1,4-benzodiazepin-3-yl]-5-methyl-6,7-dihydro-5H-pyrazolo[5,1-b][1,3]oxazine-3-carboxamide] | 0.167 µM | > 25 µM |
| C[C@@H]1CCn2nc(-c3ccoc3)c(C(=O)N[C@H]3N=C(c4ccccc4)c4cccc(F)c4NC3=O)c2O1 [Example 61, (5R)-N-[(3S)-9-fluoro-2-oxo-5-phenyl-1,3-dihydro-1,4-benzodiazepin-3-yl]-2-(3-furyl)-5-methyl-6,7-dihydro-5H-pyrazolo[5,1-b][1,3]oxazine-3-carboxamide] | 0.161 µM | > 25 µM |
| C[C@@H]1CCn2nc(-c3ccoc3)c(C(=O)N[C@H]3N=C(c4ccccc4)c4ccccc4NC3=O)c2O1 [Example 62, (5R)-2-(3-Furyl)-5-methyl-N-[(3S)-2-oxo-5-phenyl-1,3-dihydro-1,4-benzodiazepin-3-yl]-6,7-dihydro-5H-pyrazolo[5,1-b][1,3]oxazine-3-carboxamide] | 0.192 µM | > 25 µM |
| C[C@@H]1CCn2nc(-c3ccsc3)c(C(=O)N[C@H]3N=C(c4ccccc4)c4cccc(F)c4NC3=O)c2O1 [Example 63, (5R)-N-[(3S)-9-fluoro-2-oxo-5-phenyl-1,3-dihydro-1,4-benzodiazepin-3-yl]-5-methyl-2-(3-thienyl)-6,7-dihydro-5H-pyrazolo[5,1-b][1,3]oxazine-3-carboxamide] | 0.094 µM | > 25 µM |
| C[C@@H]1CCn2nc(-c3ccsc3)c(C(=O)N[C@H]3N=C(c4ccccc4)c4ccccc4NC3=O)c2O1 [Example 64, (5R)-5-Methyl-N-[(3S)-2-oxo-5-phenyl-1,3-dihydro-1,4-benzodiazepin-3-yl]-2-(3-thienyl)-6,7-dihydro-5H-pyrazolo[5,1-b][1,3]oxazine-3-carboxamide] | 0.133 µM | > 25 µM |
| CCc1ccc(-c2nn3c(c2C(=O)N[C@H]2N=C(c4ccccc4)c4ccccc4NC2=O)O[C@H](C)CC3)c(C)n1 [Example 65, (5R)-2-(6-Ethyl-2-methyl-3-pyridyl)-5-methyl-N-[(3S)-2-oxo-5-phenyl-1,3-dihydro-1,4-benzodiazepin-3-yl]-6,7-dihydro-5H-pyrazolo[5,1-b][1,3]oxazine-3-carboxamide] | 0.084 µM | > 25 µM |
| CCc1ccc(-c2nn3c(c2C(=O)N[C@H]2N=C(c4ccccc4)c4cccc(F)c4NC2=O)O[C@H](C)CC3)c(C)n1 [Example 66, (5R)-2-(6-Ethyl-2-methyl-3-pyridyl)-N-[(3S)-9-fluoro-2-oxo-5-phenyl-1,3-dihydro-1,4-benzodiazepin-3-yl]-5-methyl-6,7-dihydro-5H-pyrazolo[5,1-b][1,3]oxazine-3-carboxamide] | 0.06 µM | > 25 µM |
| CC(C)Nc1ccc(-c2nn3c(c2C(=O)N[C@H]2N=C(c4ccccc4)c4cccc(F)c4NC2=O)O[C@H](C)CC3)cn1 [Example 67, (5R)-N-[(3S)-9-fluoro-2-oxo-5-phenyl-1,3-dihydro-1,4-benzodiazepin-3-yl]-2-[6-(isopropylamino)-3-pyridyl]-5-methyl-6,7-dihydro-5H-pyrazolo[4,1-b][1,3]oxazine-3-carboxamide] | 0.019 µM | > 25 µM |
| CCn1ccc(-c2nn3c(c2C(=O)N[C@H]2N=C(c4ccccc4)c4cccc(F)c4NC2=O)O[C@H](C)CC3)n1 [Example 68, (5R)-2-(1-Ethylpyrazol-3-yl)-N-[(3S)-9-fluoro-2-oxo-5-phenyl-1,3-dihydro-1,4-benzodiazepin-3-yl]-5-methyl-6,7-dihydro-5H-pyrazolo[5,1-b][1,3]oxazine-3-carboxamide] | 0.307 µM | > 25 µM |
| CC(C)Nc1ccc(-c2nn3c(c2C(=O)N[C@H]2N=C(c4ccccc4)c4cccc(F)c4NC2=O)O[C@@H](C)CC3)cn1 [Example 69] | 0.034 µM | > 25 µM |
| CC(C)c1ccc(-c2nn3c(c2C(=O)N[C@H]2N=C(c4ccccc4)c4cccc(F)c4NC2=O)O[C@H](C)CC3)cn1 [Example 70, (5R)-5-Methyl-2-(6-propan-2-ylpyridin-3-yl)-N-[(3S)-9-fluoro-2-oxo-5-phenyl-1,3-dihydro-1,4-benzodiazepin-3-yl]-6,7-dihydro-5H-pyrazolo[5,1-b][1,3]oxazine-3-carboxamide] | 0.05 µM | > 25 µM |
| [2H]C([2H])([2H])Nc1ccc(-c2nn3c(c2C(=O)N[C@H]2N=C(c4ccccc4)c4cccc(F)c4NC2=O)O[C@H](C)CC3)cn1 [Example 71, (5R)-5-Methyl-N-[(3S)-9-fluoro-2-oxo-5-phenyl-1,3-dihydro-1,4-benzodiazepin-3-yl]-2-[6-(trideuteriomethylamino)pyridin-3-yl]-6,7-dihydro-5H-pyrazolo[5,1-b][1,3]oxazine-3-carboxamide] | 0.091 µM | > 25 µM |
| Cc1ccc(-c2nn3c(c2C(=O)N[C@H]2N=C(c4ccccc4)c4cccc(F)c4NC2=O)O[C@H](C)CC3)c(F)n1 [Example 73, (5R)-2-(2-Fluoro-6-methylpyridin-3-yl)-5-methyl-N-[(3S)-9-fluoro-2-oxo-5-phenyl-1,3-dihydro-1,4-benzodiazepin-3-yl]-6,7-dihydro-5H-pyrazolo[5,1-b][1,3]oxazine-3-carboxamide] | 0.091 µM | > 25 µM |
| CCc1ccc(-c2nn3c(c2C(=O)N[C@H]2N=C(c4ccccc4)c4cccc(F)c4NC2=O)O[C@H](C)CC3)cn1 [Example 74, (5R)-2-(6-Ethylpyridin-3-yl)-5-methyl-N-[(3S)-9-fluoro-2-oxo-5-phenyl-1,3-dihydro-1,4-benzodiazepin-3-yl]-6,7-dihydro-5H-pyrazolo[5,1-b][1,3]oxazine-3-carboxamide] | 0.039 µM | > 25 µM |
| CCc1ccc(-c2nn3c(c2C(=O)N[C@H]2N=C(c4ccccc4)c4cccc(F)c4NC2=O)O[C@H](C)CC3)c(F)c1 [Example 75, (5R)-2-(4-Ethyl-2-fluorophenyl)-5-methyl-N-[(3S)-9-fluoro-2-oxo-5-phenyl-1,3-dihydro-1,4-benzodiazepin-3-yl]-6,7-dihydro-5H-pyrazolo[5,1-b][1,3]oxazine-3-carboxamide] | 0.158 µM | > 25 µM |
| C[C@H]1CCn2nc(-c3ccncc3F)c(C(=O)N[C@H]3N=C(c4ccccc4)c4cccc(F)c4NC3=O)c2O1 [Example 76, (5S)-N-[(3S)-9-fluoro-2-oxo-5-phenyl-1,3-dihydro-1,4-benzodiazepin-3-yl]-2-(3-fluoropyridin-4-yl)-5-methyl-6,7-dihydro-5H-pyrazolo[5,1-b][1,3]oxazine-3-carboxamide] | 0.093 µM | > 25 µM |

Source: patent US12678446B2 (PFIZER INC., priority 2020, dated 2026)
